Test results taken from US20110190280A1, “Thiazole And Oxazole Kinase Inhibitors” (priority 2007, published 2011).
Structures can show the parent of a compound that is named as a salt.

Assays:
HT-29 tumor cells = assay: Cell growth inhibition assay (CellTiter-Glo), HT-29; details: Homo sapiens, HT-29, 72 h, read-out: Activity in HT-29 Tumor Cells;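 further: ATP content read by luminescence as proxy for cell number, growth inhibition versus DMSO vehicle wells, 0.2% DMSO final, nine serial threefold compound dilutions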
Colo205 tumor cells = assay: Cell growth inhibition assay (CellTiter-Glo), Colo205; details: Homo sapiens, COLO 205, 72 h, read-out: Activity in Colo205 Tumor Cells;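 further: growth measured via total ATP luminescence (CellTiter-Glo) as a proxy for cell number, inhibition expressed against DMSO-treated control wells, 3-day exposure at 0.2% final DMSO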
Description: Cell Growth Inhibition Assays Human colon tumor cells (Colo205) were cultured in RPMI (Mediatech 50-020-PB) containing 10% FBS and 1% penicillin-streptomycin. […] Human melanoma cancer cells (A375-F11S) were cultured in RPMI (Mediatech 50-020-PB) containing 10% FBS, 1% sodium pyruvate, and 1% penicillin-streptomycin. Human colon cancer cells (HT-29) were cultured in high glucose DMEM (Mediatech 50-013-PB) containing 10% FBS and 1% penicillin-streptomycin. Human melanoma cancer cells (SK-MEL-3) were cultured in McCoy's 5A (50-025-PB) containing 15% FBS, and 1% penicillin-streptomycin. All cell lines were maintained at 37° C. in a humidified 5% CO2, 95% air incubator.
The next day, compounds were diluted as follows: For 96-well assays, 13.5 μl of compound in DMSO were diluted using nine (9) serial 1:3 dilutions of 4.5 μl in 9 μl of DMSO. Medium (270 μl/well of RPMI with 10% FBS and 1% penicillin-streptomycin) was added to the plates. Aliquots (7 μl) were added to cells in the final assay giving a final DMSO concentration of 0.2%. For 384-well assays, 15 μl of compound in DMSO were diluted using nine (9) serial 1:3 dilutions of 5 μl in 10 μl of DMSO, followed by a further dilution of 5 μl of compound with 95 μl of medium, of which 2 μl are added to cells in the final assay giving a final DMSO concentration of 0.2%. Cells were incubated at 37° C., 5% CO2 for 3 days.
Total ATP was measured (as a surrogate estimate of cell number) using CellTiter-Glo® (Promega G7571) reagent. Briefly, plates were removed from the incubator and allowed to equilibrate to room temperature for 30 minutes. CellTiter-Glo® (25 μl or 55 μl for 384-well or 96-well assays, respectively) reagent was added to each well and plates were shaken on an orbital plate shaker for 2 minutes. Plates were incubated without shaking for a further 30 minutes and read on an LJL Analyst GT reader in luminometer mode with an integration time of 0.5 seconds per well. Percent inhibition of cell growth was calculated relative to DMSO vehicle-treated control wells.

SK-MEL-3 tumor cells = assay: Cell growth inhibition assay (CellTiter-Glo), SK-MEL-3; details: Homo sapiens, SK-MEL3, 72 h, read-out: Activity in SK-MEL-3 Tumor Cells;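 further: human melanoma cells grown with compound for 3 days in 0.2% DMSO, total ATP read by luminescence as proxy for cell number, growth inhibition versus DMSO-treated wells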
B-Raf = B-Raf (Homo sapiens, UniProt P15056); assay: B-Raf Accelerated MEK ATPase assay (BRAMA); assay type: biochemical; details: BRAMA enzyme assay; class by pIC50; read-out: B-Raf Activity
Summary of the method: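 B-Raf activity read as intrinsic MEK ATPase: catalytic activated RAF with non-phosphorylated MEK drives ADP formation, coupled through pyruvate kinase and lactate dehydrogenase to NADH oxidation, independent of ERK phosphorylation.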

A375P tumor cells = assay: Cell growth inhibition assay (CellTiter-Glo), A375P; details: Homo sapiens, 72 h, read-out: Activity in A375P Tumor Cells;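 further: total ATP luminescence used as proxy for cell number, serial threefold compound dilutions at 0.2% DMSO, growth inhibition expressed versus DMSO vehicle-treated wells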
SK-MEL-28 tumor cells = assay: Cell growth inhibition assay (CellTiter-Glo), SK-MEL-28; details: Homo sapiens, SK-MEL-28, 72 h, read-out: Activity in SK-MEL-28 Tumor Cells;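 further: luminescent total ATP as a proxy for cell number, threefold serial dilutions at 0.2% DMSO, percent growth inhibition versus DMSO vehicle control wells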

B-Raf, sequence (P15056 whole entry): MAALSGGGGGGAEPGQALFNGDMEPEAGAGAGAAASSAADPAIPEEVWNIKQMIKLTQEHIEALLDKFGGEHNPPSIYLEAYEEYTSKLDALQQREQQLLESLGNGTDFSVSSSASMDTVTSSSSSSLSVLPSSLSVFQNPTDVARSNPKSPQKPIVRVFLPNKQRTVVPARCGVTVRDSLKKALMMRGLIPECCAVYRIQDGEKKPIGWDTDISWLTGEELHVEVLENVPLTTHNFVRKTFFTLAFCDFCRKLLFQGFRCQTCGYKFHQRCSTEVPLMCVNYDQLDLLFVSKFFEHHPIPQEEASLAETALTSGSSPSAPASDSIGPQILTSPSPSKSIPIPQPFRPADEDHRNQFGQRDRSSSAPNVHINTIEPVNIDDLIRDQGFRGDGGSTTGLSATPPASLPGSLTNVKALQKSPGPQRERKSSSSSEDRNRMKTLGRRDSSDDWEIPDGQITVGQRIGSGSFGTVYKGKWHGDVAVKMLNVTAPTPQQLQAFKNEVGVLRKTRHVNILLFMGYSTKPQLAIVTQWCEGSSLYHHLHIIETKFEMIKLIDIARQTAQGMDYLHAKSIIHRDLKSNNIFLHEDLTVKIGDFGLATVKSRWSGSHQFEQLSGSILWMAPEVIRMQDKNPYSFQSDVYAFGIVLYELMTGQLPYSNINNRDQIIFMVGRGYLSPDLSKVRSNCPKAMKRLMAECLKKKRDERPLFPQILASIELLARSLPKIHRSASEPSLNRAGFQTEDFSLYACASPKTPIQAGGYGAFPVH

## CCc1nc(-c2cccc(CO)c2)c(-c2ccnc(Nc3ccc(N4CCOCC4)c(F)c3)n2)s1 [Example 67, {3-[2-Ethyl-5-(2-{[3-fluoro-4-(4-morpholinyl)phenyl]amino}-4-pyrimidinyl)-1,3-thiazol-4-yl]phenyl}methanol]
HT-29 tumor cells
  IC50: < 500 nM
Colo205 tumor cells
  IC50: 500 to 5000 nM
SK-MEL-3 tumor cells
  IC50: < 500 nM
B-Raf
  IC50: < 100 nM
A375P tumor cells
  IC50: < 500 nM
SK-MEL-28 tumor cells
  IC50: 500 to 5000 nM

## CCNc1nc(-c2cc(C)cc(OC)c2)c(-c2ccnc(Nc3ccc(OC4CCN(CCS(C)(=O)=O)CC4)c(C)c3)n2)o1 [Example 125]
HT-29 tumor cells
  IC50: 500 to 5000 nM
Colo205 tumor cells
  IC50: 500 to 5000 nM
SK-MEL-3 tumor cells
  IC50: 500 to 5000 nM
B-Raf
  IC50: < 100 nM
A375P tumor cells
  IC50: 500 to 5000 nM
SK-MEL-28 tumor cells
  IC50: 500 to 5000 nM

## COc1cc(-c2nc(NC3CC3)sc2-c2ccnc(Nc3ccc(OCCN4CCCC4)c(Cl)c3)n2)ccc1Cl [Example 51, 4-[4-[4-Chloro-3-(methyloxy)phenyl]-2-(cyclopropylamino)-1,3-thiazol-5-yl]-N-(3-chloro-4-{[2-(1-pyrrolidinyl)ethyl]oxy}phenyl)-2-pyrimidinamine]
HT-29 tumor cells
  IC50: < 500 nM
Colo205 tumor cells
  IC50: < 500 nM
SK-MEL-3 tumor cells
  IC50: < 500 nM
B-Raf
  IC50: < 100 nM
A375P tumor cells
  IC50: 500 to 5000 nM
SK-MEL-28 tumor cells
  IC50: 500 to 5000 nM

## CCc1nc(-c2cc(C)cc(CO)c2)c(-c2ccnc(Nc3ccc(N4CCN(S(C)(=O)=O)CC4)nc3)n2)s1 [Example 66, (3-{2-Ethyl-5-[2-({6-[4-(methylsulfonyl)piperazin-1-yl]pyridin-3-yl}amino)pyrimidin-4-yl]-1,3-thiazol-4-yl}-5-methylphenyl)methanol]
HT-29 tumor cells
  IC50: < 500 nM
Colo205 tumor cells
  IC50: < 500 nM
SK-MEL-3 tumor cells
  IC50: < 500 nM
B-Raf
  IC50: < 100 nM
A375P tumor cells
  IC50: < 500 nM
SK-MEL-28 tumor cells
  IC50: 500 to 5000 nM

## CCNc1nc(-c2cc(OC)cc(OC)c2)c(-c2ccnc(Nc3ccc(N4CCN(CC)CC4)cc3)n2)s1 [Example 5, 4-[4-[3,5-Bis(methyloxy)phenyl]-2-(ethylamino)-1,3-thiazol-5-yl]-N-[4-(4-ethyl-1-piperazinyl)phenyl]-2-pyrimidinamine trifluoroacetate]
HT-29 tumor cells
  IC50: < 500 nM
Colo205 tumor cells
  IC50: 500 to 5000 nM
SK-MEL-3 tumor cells
  IC50: < 500 nM
B-Raf
  IC50: < 100 nM
A375P tumor cells
  IC50: 500 to 5000 nM
SK-MEL-28 tumor cells
  IC50: 500 to 5000 nM

## CCc1nc(-c2cc(CO)cc(OC)c2)c(-c2ccnc(Nc3ccc(N4CCN(C(C)=O)CC4)nc3)n2)s1 [Example 65, [3-[5-(2-{[6-(4-Acetyl-1-piperazinyl)-3-pyridinyl]amino}-4-pyrimidinyl)-2-ethyl-1,3-thiazol-4-yl]-5-(methyloxy)phenyl]methanol]
HT-29 tumor cells
  IC50: 500 to 5000 nM
Colo205 tumor cells
  IC50: 500 to 5000 nM
SK-MEL-3 tumor cells
  IC50: 500 to 5000 nM
B-Raf
  IC50: < 100 nM
A375P tumor cells
  IC50: 500 to 5000 nM
SK-MEL-28 tumor cells
  IC50: 500 to 5000 nM

## COc1cc(C)cc(-c2nc(C(C)C)oc2-c2ccnc(Nc3ccc(N4CCN(C(C)=O)CC4)nc3)n2)c1 [Example 98]
HT-29 tumor cells
  IC50: 500 to 5000 nM
Colo205 tumor cells
  IC50: < 500 nM
SK-MEL-3 tumor cells
  IC50: < 500 nM
B-Raf
  IC50: < 100 nM
A375P tumor cells
  IC50: 500 to 5000 nM
SK-MEL-28 tumor cells
  IC50: 500 to 5000 nM

## CCNc1nc(-c2cc(C)cc(OC)c2)c(-c2ccnc(Nc3ccc(N4CCN(CCS(C)(=O)=O)CC4)c(F)c3)n2)o1 [Example 127]
HT-29 tumor cells
  IC50: < 500 nM
Colo205 tumor cells
  IC50: < 500 nM
SK-MEL-3 tumor cells
  IC50: < 500 nM
B-Raf
  IC50: < 100 nM
A375P tumor cells
  IC50: 500 to 5000 nM
SK-MEL-28 tumor cells
  IC50: < 500 nM

## CCNc1nc(-c2cc(Cl)cc(OC)c2)c(-c2ccnc(Nc3ccc(N4CCN(CCF)CC4)c(F)c3)n2)o1 [Example 104]
HT-29 tumor cells
  IC50: < 500 nM
Colo205 tumor cells
  IC50: < 500 nM
SK-MEL-3 tumor cells
  IC50: 500 to 5000 nM
B-Raf
  IC50: < 100 nM
A375P tumor cells
  IC50: 500 to 5000 nM
SK-MEL-28 tumor cells
  IC50: 500 to 5000 nM

## CCNc1nc(-c2cc(OC)cc(OC)c2)c(-c2ccnc(Nc3ccc(OCCN(C)C)c(C)c3)n2)s1 [Example 106]
HT-29 tumor cells
  IC50: < 500 nM
Colo205 tumor cells
  IC50: < 500 nM
SK-MEL-3 tumor cells
  IC50: < 500 nM
B-Raf
  IC50: < 100 nM
A375P tumor cells
  IC50: < 500 nM
SK-MEL-28 tumor cells
  IC50: 500 to 5000 nM

## CCNc1nc(-c2cc(C)cc(OC)c2)c(-c2ccnc(Nc3ccc(N4CCN(C)CC4)c(Cl)c3)n2)s1 [Example 31, N-[3-Chloro-4-(4-methyl-1-piperazinyl)phenyl]-4-{2-(ethylamino)-4-[3-methyl-5-(methyloxy)phenyl]-1,3-thiazol-5-yl}-2-pyrimidinamine]
HT-29 tumor cells
  IC50: < 500 nM
Colo205 tumor cells
  IC50: < 500 nM
SK-MEL-3 tumor cells
  IC50: < 500 nM
B-Raf
  IC50: < 100 nM
A375P tumor cells
  IC50: < 500 nM
SK-MEL-28 tumor cells
  IC50: < 500 nM

## COc1cc(OC)cc(-c2nc(NC3CCC3)sc2-c2ccnc(Nc3ccc(OC4CCN(CCS(C)(=O)=O)CC4)c(F)c3)n2)c1 [Example 22, 4-[4-[3,5-Bis(methyloxy)phenyl]-2-(cyclobutylamino)-1,3-thiazol-5-yl]-N-[3-fluoro-4-({1-[2-(methylsulfonyl)ethyl]-4-piperidinyl}oxy)phenyl]-2-pyrimidinamine]
HT-29 tumor cells
  IC50: < 500 nM
Colo205 tumor cells
  IC50: < 500 nM
SK-MEL-3 tumor cells
  IC50: < 500 nM
B-Raf
  IC50: < 100 nM
A375P tumor cells
  IC50: < 500 nM
SK-MEL-28 tumor cells
  IC50: < 500 nM

## CCNc1nc(-c2cc(OC)cc(OC)c2)c(-c2ccnc(Nc3cc(OC)c(OC4CCN(CCS(C)(=O)=O)CC4)c(OC)c3)n2)o1 [Example 133]
HT-29 tumor cells
  IC50: 500 to 5000 nM
Colo205 tumor cells
  IC50: < 500 nM
SK-MEL-3 tumor cells
  IC50: 500 to 5000 nM
B-Raf
  IC50: < 100 nM
A375P tumor cells
  IC50: 500 to 5000 nM
SK-MEL-28 tumor cells
  IC50: 500 to 5000 nM

## CCNc1nc(-c2cccc(N(C)C)c2)c(-c2ccnc(Nc3ccc(OCCN4CCCC4)c(Cl)c3)n2)s1 [Example 45, N-(3-Chloro-4-{[2-(1-pyrrolidinyl)ethyl]oxy}phenyl)-4-[4-[3-(dimethylamino)phenyl]-2-(ethylamino)-1,3-thiazol-5-yl]-2-pyrimidinamine]
HT-29 tumor cells
  IC50: < 500 nM
Colo205 tumor cells
  IC50: 500 to 5000 nM
SK-MEL-3 tumor cells
  IC50: 500 to 5000 nM
B-Raf
  IC50: < 100 nM
A375P tumor cells
  IC50: 500 to 5000 nM
SK-MEL-28 tumor cells
  IC50: 500 to 5000 nM

## CCNc1nc(-c2cc(OC)cc(OC)c2)c(-c2ccnc(Nc3ccc(N4CCS(=O)(=O)CC4)c(F)c3)n2)s1 [Example 9, 4-[4-[3,5-Bis(methyloxy)phenyl]-2-(ethylamino)-1,3-thiazol-5-yl]-N-[4-(1,1-dioxido-4-thiomorpholinyl)-3-fluorophenyl]-2-pyrimidinamine]
HT-29 tumor cells
  IC50: < 500 nM
Colo205 tumor cells
  IC50: 500 to 5000 nM
SK-MEL-3 tumor cells
  IC50: < 500 nM
B-Raf
  IC50: < 100 nM
A375P tumor cells
  IC50: 500 to 5000 nM
SK-MEL-28 tumor cells
  IC50: < 500 nM

## CCNc1nc(-c2cc(OC)cc(OC)c2)c(-c2ccnc(Nc3ccc(OC4CCN(CCS(C)(=O)=O)CC4)c(Cl)c3)n2)o1 [Example 92]
HT-29 tumor cells
  IC50: 500 to 5000 nM
Colo205 tumor cells
  IC50: 500 to 5000 nM
SK-MEL-3 tumor cells
  IC50: 500 to 5000 nM
B-Raf
  IC50: < 100 nM
A375P tumor cells
  IC50: 500 to 5000 nM
SK-MEL-28 tumor cells
  IC50: 500 to 5000 nM

## COc1cc(OC)cc(-c2nc(NC3CC3)sc2-c2ccnc(Nc3ccc(OCCN(C)C)c(Cl)c3)n2)c1 [Example 105]
HT-29 tumor cells
  IC50: < 500 nM
Colo205 tumor cells
  IC50: < 500 nM
SK-MEL-3 tumor cells
  IC50: < 500 nM
B-Raf
  IC50: < 100 nM
A375P tumor cells
  IC50: < 500 nM
SK-MEL-28 tumor cells
  IC50: < 500 nM

## CCNc1nc(-c2cc(OC)cc(OC)c2)c(-c2ccnc(Nc3ccc(N4CCN(C)CC4)c(Cl)c3)n2)s1 [Example 11, 4-[4-[3,5-Bis(methyloxy)phenyl]-2-(ethylamino)-1,3-thiazol-5-yl]-N-[3-chloro-4-(4-methyl-1-piperazinyl)phenyl]-2-pyrimidinamine]
HT-29 tumor cells
  IC50: < 500 nM
Colo205 tumor cells
  IC50: < 500 nM
SK-MEL-3 tumor cells
  IC50: < 500 nM
B-Raf
  IC50: < 100 nM
A375P tumor cells
  IC50: < 500 nM
SK-MEL-28 tumor cells
  IC50: < 500 nM

## CCNc1nc(-c2cc(OC)cc(OC)c2)c(-c2ccnc(Nc3ccc(OC4CCN(C(C)=O)CC4)c(F)c3)n2)s1 [Example 12, N-{4-[(1-Acetyl-4-piperidinyl)oxy]-3-fluorophenyl}-4-[4-[3,5-bis(methyloxy)phenyl]-2-(ethylamino)-1,3-thiazol-5-yl]-2-pyrimidinamine]
HT-29 tumor cells
  IC50: < 500 nM
Colo205 tumor cells
  IC50: < 500 nM
SK-MEL-3 tumor cells
  IC50: < 500 nM
B-Raf
  IC50: < 100 nM
A375P tumor cells
  IC50: < 500 nM
SK-MEL-28 tumor cells
  IC50: 500 to 5000 nM
